Measurements reported in PMC10725991, “Kaempferol is a novel antiviral agent against channel catfish virus infection through blocking viral attachment and penetration in vitro” (Frontiers in Veterinary Science, 2023).

Assays:
CCV in CCO cells = assay: Virus attachment assay; format: cell-based, Channel catfish virus (CCV, Ictalurid herpesvirus 1); details: kaempferol 15 μg/mL, 24 h
Method: The attachment assay was performed as previously described, with slight modifications ([35]). Briefly, monolayer CCO cells seeded in 24-well plates were pre-cooled at 4°C for 30 min, and then the pre-cooled cells were treated with kaempferol (15 μg/mL) or left untreated for 2 h at 4°C. Cells were then incubated with CCV at 4°C for 1 h to allow virus attachment but prevent viral internalization. Thereafter, the compound and unattached virus were washed with ice-cold PBS and a fresh DMEM medium was added. After incubated at 28°C for 24 h, the cells were collected for subsequent experiments, including RT-qPCR and viral titer.
Measurement of viral titer was described previously ([5]). […]
For RT-qPCR, the total RNA was isolated from CCV-infected cells using RnaExTM (Trizol)^a reagent (GENERAY, China), and reversed transcribed applying a HiScript III RT SuperMix with gDNA wiper (Vazyme, China) following the manufacturer’s instructions. Quantitative PCR was performed with a LightCycler 96 Real-Time PCR Detection System (Roche, USA) using ChamQ Universal SYBR qPCR Master Mix (Vazyme, China) with the following cycle conditions: 95°C for 30 s, followed by 40 cycles of 95°C for 10 s and 60°C for 30 s. […] Fold changes of the selected gene vs 18 s (internal reference) were calculated by the 2^−△△Ct method. […]

CCO cells = assay: Compounds cytotoxicity assay (CCK-8 cell viability); format: cell-based; details: channel catfish, 72 h
Method: The cytotoxicity effects of the selected compounds were detected in CCO cells by the cell viability assay. In brief, the CCO cells were seeded in 96-well plates and cultured to reach approximately 90% confluence in each well at 28°C. Subsequently, the monolayer cells were exposed to a maintenance medium with the tested compounds at different concentrations or DMSO for 72 h. Cell Counting Kit-8 (Beyotime, China) was used to measure the cell viability according to the manufacturer’s protocol after 72 h incubation. The optical density at 450 nm was measured using a Spark microplate reader (TECAN, Switzerland). Then, the maximum safe concentration (≥ 90% cell survived, SC90) of compounds to CCO cells was calculated according to the cell viability.
All data were analyzed with GraphPad Prism 8.0. Viral titers were log10 transformed prior to statistical analyses. The SC90 values were calculated using probit analysis. The data are expressed as the arithmetic mean ± standard deviation (SD) and were analyzed by one-way ANOVA with multiple comparisons test. Statistical significance was defined as *p < 0.05, **p < 0.01.
Figure 1 Cytotoxicity assay. The CCO cells were treated with 12 tested compounds with different concentrations in a 96-well plate for 72 h, and then the cell viability was measured by CCK-8. (A) Kaempferol, (B) Tannic acid, (C) P-Coumaric acid, (D) Magnolol, (E) Baicalein, (F) Genistein, (G) Mangiferin, (H) Rosmarinic acid, (I) Artemisinin, (J) Myricetin, (K) Ginkgolic acid, (L) Shikonin. Data represent mean ± SD normalized to values for DMSO treated group. The SC90 was analyzed and calculated using probit analysis. TEXT PRINTED IN THE PICTURE: (A) Kaempferol: SC90 = 47.53 μg/ml | (B) Tannic acid: SC90 = 90.02 μg/ml | (C) P-Coumaric acid: SC90 ≥500 μg/ml | (D) Magnolol: SC90 = 10.02 μg/ml | (E) Baicalein: SC90 = 29.73 μg/ml | (F) Genistein: SC90 = 13.66 μg/ml | (G) Mangiferin: SC90 ≥500 μg/ml | (H) Rosmarinic acid: SC90 = 46.37 μg/ml | (I) Artemisinin: SC90 ≥500 μg/ml | (J) Myricetin: SC90 = 346.19 μg/ml | (K) Ginkgolic acid: SC90 = 10.89 μg/ml | (L) Shikonin: SC90 = 54.44 μg/ml DOUBTS OF THE COPYIST ABOUT THIS PICTURE: All SC90 values are in small print, so 3, 5, 6, 8 and 9 are hard to tell apart / Kaempferol, SC90: 47.53 (5 or 3 uncertain) / Tannic acid, SC90: 90.02 (9 or 8 uncertain) / Baicalein, SC90: 29.73 (9 or 3 uncertain) / Genistein, SC90: 13.66 (3 and 6 uncertain) / Rosmarinic acid, SC90: 46.37 (6 and 3 uncertain) / Myricetin, SC90: 346.19 (3, 6 and 9 uncertain) / Ginkgolic acid, SC90: 10.89 (8 and 9 uncertain) / Shikonin, SC90: 54.44 (5 uncertain) / P-Coumaric acid, Mangiferin, Artemisinin, SC90: sign ≥ or >; 500 (5 uncertain)

Structure (SMILES): O=c1c(O)c(-c2ccc(O)cc2)oc2cc(O)cc(O)c12 [Kaempferol]
- down-regulation of viral attachment (CCV ORF 39/ORF 59, RT-qPCR) vs CCV control (CCV in CCO cells; 2 h at 4°C): more than 50%
- production of intracellular virus (virus titer), attachment assay (CCV in CCO cells): significantly reduced
- SC90 (maximum safe concentration, ≥ 90% cell survived) (CCO cells): 47.53 µg/mL
